According to US11180474B2 (BRISTOL-MYERS SQUIBB COMPANY, priority 2016, dated 2021):

What follows are compounds tested against T1, human TLR7 (Homo sapiens, UniProt Q9NYK1) (assay: TLR7 inhibition reporter assay (HEK-Blue cells, SEAP reporter, gardiquimod stimulation)). Details: HEK-Blue cells overexpressing human TLR7, gardiquimod 7.5 μM.
T1 construct: host or cells: HEK-Blue cells
T1 sequence (Q9NYK1 27-1049): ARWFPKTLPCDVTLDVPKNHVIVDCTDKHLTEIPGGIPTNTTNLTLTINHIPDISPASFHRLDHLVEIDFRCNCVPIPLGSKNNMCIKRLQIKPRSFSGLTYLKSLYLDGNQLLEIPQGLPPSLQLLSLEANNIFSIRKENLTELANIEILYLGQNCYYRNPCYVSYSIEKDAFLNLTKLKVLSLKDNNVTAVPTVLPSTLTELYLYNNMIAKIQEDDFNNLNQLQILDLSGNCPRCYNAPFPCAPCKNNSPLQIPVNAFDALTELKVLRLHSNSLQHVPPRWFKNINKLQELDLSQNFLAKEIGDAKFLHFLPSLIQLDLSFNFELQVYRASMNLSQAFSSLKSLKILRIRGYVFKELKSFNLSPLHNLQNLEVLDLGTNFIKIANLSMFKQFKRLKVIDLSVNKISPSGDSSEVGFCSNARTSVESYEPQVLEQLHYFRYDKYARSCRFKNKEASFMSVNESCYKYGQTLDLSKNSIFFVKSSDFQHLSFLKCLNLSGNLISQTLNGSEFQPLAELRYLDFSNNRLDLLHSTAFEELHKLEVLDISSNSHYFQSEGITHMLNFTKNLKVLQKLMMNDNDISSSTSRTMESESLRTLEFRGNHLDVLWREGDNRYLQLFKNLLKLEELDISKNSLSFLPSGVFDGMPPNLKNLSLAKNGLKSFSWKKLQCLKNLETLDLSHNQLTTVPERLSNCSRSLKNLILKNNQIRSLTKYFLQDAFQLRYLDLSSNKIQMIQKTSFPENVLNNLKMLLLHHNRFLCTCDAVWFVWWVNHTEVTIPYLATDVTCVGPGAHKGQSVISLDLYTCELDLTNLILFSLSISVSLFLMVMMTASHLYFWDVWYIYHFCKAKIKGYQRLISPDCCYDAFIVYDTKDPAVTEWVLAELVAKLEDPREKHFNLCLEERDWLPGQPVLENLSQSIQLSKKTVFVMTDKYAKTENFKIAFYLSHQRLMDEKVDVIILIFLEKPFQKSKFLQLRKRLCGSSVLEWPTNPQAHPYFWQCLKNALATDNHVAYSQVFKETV
Type: cell-based
Procedure, shortened: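 In this cell reporter format, test compounds at 0.05 nM-50 μM final incubate 22 h with seeded cells (TLR7 15000, TLR8 20,000 per well). SEAP read-out by HEK-Blue Detection medium yields % inhibition relative to agonist/DMSO and known-inhibitor wells.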
In the case of `COc1ccc(-c2[nH]c3ccc(C4CCN(C5CCN(C(C)C)CC5)CC4)cc3c2CC(F)(F)F)cc1OC` [Example 412, 2-(3,4-dimethoxyphenyl)-5-(1′-isopropyl-[1,4′-bipiperidin]-4-yl)-3-(2,2,2-trifluoroethyl)-1H-indole], the IC50 is reported as 19 nM.
`COc1ccc(-c2[nH]c3ccc(C4CCN(C5CCN(CC(C)(C)C)CC5)CC4)cc3c2C)cc1OC` [Example 75, 2-(3,4-dimethoxyphenyl)-3-methyl-5-(1′-neopentyl-[1,4′-bipiperidin]-4-yl)-1H-indole] was tested, and the IC50 was 734 nM.
`CNCC(=O)N1CCC(c2ccc3[nH]c(-c4ccc(OC)c(OC)c4)c(CC(F)(F)F)c3c2)CC1` [Example 414, 1-(4-(2-(3,4-dimethoxyphenyl)-3-(2,2,2-trifluoroethyl)-1H-indol-5-yl)piperidin-1-yl)-2-(methylamino)ethanone] gave an IC50 of 58 nM.
In the case of `COc1ccc(-c2[nH]c3ccc(C4CCN(C5CCN(Cc6ccco6)CC5)CC4)cc3c2C)cc1OC` [Example 76, 2-(3,4-dimethoxyphenyl)-5-(1′-(furan-2-ylmethyl)-[1,4′-bipiperidin]-4-yl)-3-methyl-1H-indole], the IC50 is reported as 147 nM.
For `CCN1CCC(N2CCC(c3ccc4[nH]c(-c5ccc(OC)c(OC)c5)c(C)c4c3)CC2)CC1` [Example 44, 2-(3,4-dimethoxyphenyl)-5-(1′-ethyl-[1,4′-bipiperidin]-4-yl)-3-methyl-1H-indole], the IC50 was 468 nM.
For `COc1ccc(-c2[nH]c3ccc(C4CCN(C5CCN(CC6CCCCC6)CC5)CC4)cc3c2C)cc1OC` [Example 58, 5-(1′-(cyclohexylmethyl)-[1,4′-bipiperidin]-4-yl)-2-(3,4-dimethoxyphenyl)-3-methyl-1H-indole], the IC50 was 266 nM.
With `CCN(CC)C(=O)C1CCCN(CC(=O)N2CCC(c3ccc4[nH]c(-c5ccc(OC)c(OC)c5)c(CC(F)(F)F)c4c3)CC2)C1` (centres unmarked) [Example 421, 1-(2-(4-(2-(3,4-dimethoxyphenyl)-3-(2,2,2-trifluoroethyl)-1H-indol-5-yl)piperidin-1-yl)-2-oxoethyl)-N,N-diethylpiperidine-3-carboxamide] the IC50 was 114 nM.
Compound `COc1ccc(-c2[nH]c3ccc(C4CCN(C5CCN(Cc6nccs6)CC5)CC4)cc3c2C)cc1OC` [Example 72, 2-((4-(2-(3,4-dimethoxyphenyl)-3-methyl-1H-indol-5-yl)-[1,4′-bipiperidin]-1′-yl)methyl)thiazole] has an IC50 of 563 nM.
With `COc1ccc(-c2[nH]c3ccc(C4CCN(C5CCN(Cc6cccn6C)CC5)CC4)cc3c2C)cc1OC` [Example 78, 2-(3,4-dimethoxyphenyl)-3-methyl-5-(1′-((1-methyl-1H-pyrrol-2-yl)methyl)-[1,4′-bipiperidin]-4-yl)-1H-indole] the IC50 was 223 nM.
Work on `COc1ccc(-c2[nH]c3ccc(C4CCN(C(=O)CN5CCC(N(C)C)CC5)CC4)cc3c2C)cc1OC` [Example 407, 1-(4-(2-(3,4-dimethoxyphenyl)-3-methyl-1H-indol-5-yl)piperidin-1-yl)-2-(4-(dimethylamino)piperidin-1-yl)ethan-1-one] yielded an IC50 of 12300 nM.
For `COc1ccc(-c2[nH]c3ccc(C4CCN(C(=O)CN(C)CCO)CC4)cc3c2C)cc1OC` [Example 408, 1-(4-(2-(3,4-dimethoxyphenyl)-3-methyl-1H-indol-5-yl)piperidin-1-yl)-2-((2-hydroxyethyl)(methyl)amino)ethan-1-one], the IC50 was 898 nM.
`CCN1CCCC(N2CCC(c3ccc4[nH]c(-c5ccc(OC)c(OC)c5)c(C)c4c3)CC2)CC1` (centres unmarked) [Example 97, 2-(3,4-dimethoxyphenyl)-5-(1-(1-ethylazepan-4-yl)piperidin-4-yl)-3-methyl-1H-indole] gave an IC50 of 931 nM.
`CCN(CC)C(=O)C1CCCN(CC(=O)N2CCC(c3ccc4[nH]c(-c5ccc(OC)c(OC)c5)c(CC(F)(F)F)c4c3)CC2)C1` (centres unmarked) [Example 418, 1-(2-(4-(2-(3,4-dimethoxyphenyl)-3-(2,2,2-trifluoroethyl)-1H-indol-5-yl)piperidin-1-yl)-2-oxoethyl)-N,N-diethylpiperidine-3-carboxamide] was tested, and the IC50 was 79 nM.
`COc1ccc(-c2[nH]c3ccc(C4CCN(C(=O)CN5CCCN(C)CC5)CC4)cc3c2C)cc1OC` [Example 410, 1-(4-(2-(3,4-dimethoxyphenyl)-3-methyl-1H-indol-5-yl)piperidin-1-yl)-2-(4-methyl-1,4-diazepan-1-yl)ethan-1-one] showed an IC50 of 3860 nM.
`COc1ccc(-c2[nH]c3ccc(C4CCN(C5CCN(C6CCC(O)CC6)CC5)CC4)cc3c2C)cc1OC` (centres unmarked) [Example 84, 4-(4-(2-(3,4-dimethoxyphenyl)-3-methyl-1H-indol-5-yl)-[1,4′-bipiperidin]-1′-yl)cyclohexan-1-ol] was tested, and the IC50 was 490 nM.
Work on `COc1ccc(-c2[nH]c3ccc(C4CCN(C5CCN(CC6CCOC6)CC5)CC4)cc3c2C)cc1OC` (centres unmarked) [Example 74] yielded an IC50 of 1080 nM.
Compound `COc1ccc(-c2[nH]c3ccc(C4CCN(C5CCCN(CC6CC6)CC5)CC4)cc3c2C)cc1OC` (centres unmarked) [Example 94, 5-(1-(1-(cyclopropylmethyl)azepan-4-yl)piperidin-4-yl)-2-(3,4-dimethoxyphenyl)-3-methyl-1H-indole] has an IC50 of 1770 nM.
In the case of `COc1ccc(-c2[nH]c3ccc(C4CCN(C5CC(C)(C)NC(C)(C)C5)CC4)cc3c2C)cc1OC` [Example 48, 2-(3,4-dimethoxyphenyl)-3-methyl-5-(2′,2′,6′,6′-tetramethyl-[1,4′-bipiperidin]-4-yl)-1H-indole], the IC50 is reported as 560 nM.
In the case of `C#CCCCCC(=O)NCCN1CCC(c2ccc3[nH]c(-c4ccc(OC)c(OC)c4)c(C(C)C)c3c2)CC1` [Example 411, N-(2-(4-(2-(3,4-dimethoxyphenyl)-3-isopropyl-1H-indol-5-yl)piperidin-1-yl)ethyl)hept-6-ynamide], the IC50 is reported as 63 nM.
Compound `COc1ccc(-c2[nH]c3ccc(C4CCN(C(=O)CNCCC(C)O)CC4)cc3c2C)cc1OC` (centres unmarked) [Example 406, 1-(4-(2-(3,4-dimethoxyphenyl)-3-methyl-1H-indol-5-yl)piperidin-1-yl)-2-((3-hydroxybutyl)amino)ethan-1-one] has an IC50 of 1180 nM.
Compound `COc1ccc(-c2[nH]c3ccc(C4CCN(C5CCCN(C)CC5)CC4)cc3c2C)cc1OC` (centres unmarked) [Example 91, 2-(3,4-dimethoxyphenyl)-3-methyl-5-(1-(1-methylazepan-4-yl)piperidin-4-yl)-1H-indole] has an IC50 of 829 nM.
For `COc1ccc(-c2[nH]c3ccc(C4CCN(C5CCCN(C6CCCC6)CC5)CC4)cc3c2C)cc1OC` (centres unmarked) [Example 93, 5-(1-(1-cyclopentylazepan-4-yl)piperidin-4-yl)-2-(3,4-dimethoxyphenyl)-3-methyl-1H-indole], the IC50 was 903 nM.
`COc1ccc(-c2[nH]c3ccc(C4CCN(C5CCN(CCC(F)(F)F)CC5)CC4)cc3c2C)cc1OC` [Example 50, 2-(3,4-dimethoxyphenyl)-3-methyl-5-(1′-(3,3,3-trifluoropropyl)-[1,4′-bipiperidin]-4-yl)-1H-indole] was tested, and the IC50 was 1090 nM.
In the case of `COc1ccc(-c2[nH]c3ccc(C4CCN(C5CCN(Cc6cccs6)CC5)CC4)cc3c2C)cc1OC` [Example 64, 2-(3,4-dimethoxyphenyl)-3-methyl-5-(1′-(thiophen-2-ylmethyl)-[1,4′-bipiperidin]-4-yl)-1H-indole], the IC50 is reported as 163 nM.
`CNCCN1CCC(c2ccc3[nH]c(-c4ccc(OC)c(OC)c4)c(CC(F)(F)F)c3c2)CC1` [Example 413, 2-(4-(2-(3,4-dimethoxyphenyl)-3-(2,2,2-trifluoroethyl)-1H-indol-5-yl)piperidin-1-yl)-N-methylethanamine] was tested, and the IC50 was 83 nM.
In the case of `COc1ccc(-c2[nH]c3ccc(C4CCN(C5CCN(Cc6cncn6C)CC5)CC4)cc3c2C)cc1OC` [Example 59, 2-(3,4-dimethoxyphenyl)-3-methyl-5-(1′-((1-methyl-1H-imidazol-5-yl)methyl)-[1,4′-bipiperidin]-4-yl)-1H-indole], the IC50 is reported as 477 nM.
In the case of `COc1ccc(-c2[nH]c3ccc(C4CCN(C5CCN(CC(O)CO)CC5)CC4)cc3c2C)cc1OC` (centres unmarked) [Example 52, 3-(4-(2-(3,4-dimethoxyphenyl)-3-methyl-1H-indol-5-yl)-[1,4′-bipiperidin]-1′-yl)propane-1,2-diol], the IC50 is reported as 230 nM.
For `COc1ccc(-c2[nH]c3ccc(C4CCN(C(C)CO)CC4)cc3c2C)cc1OC` (centres unmarked) [Example 43, 2-(4-(2-(3,4-dimethoxyphenyl)-3-methyl-1H-indol-5-yl)piperidin-1-yl)propan-1-ol], the IC50 was 1160 nM.
In the case of `CCCCCN1CCC(N2CCC(c3ccc4[nH]c(-c5ccc(OC)c(OC)c5)c(C)c4c3)CC2)CC1` [Example 55, 2-(3,4-dimethoxyphenyl)-3-methyl-5-(1′-pentyl-[1,4′-bipiperidin]-4-yl)-1H-indole], the IC50 is reported as 86 nM.
